In patent publication US9220703B2, “Composition and method for the protection of articular cartilage” (priority 2014, dated 2015):

System: Mycobacterium tuberculosis (adjuvant) induced arthritis
Assay: Adjuvant induced arthritis in rats, histopathology of paw/ankle joint tissue
Format: in vivo, Albino Wistar rats
Conditions: for Histopathology of rat paw tissue: articular cartilage / Histopathology of rat paw tissue: granulomas / Histopathology of rat paw tissue: synovial tissue: adjuvant arthritic rats, H&E stain
Description: Pathological damage: Adjuvant induced arthritis in animal models
Animals used: Albino Wistar rats of either sex
Weight of the animals: 140-180 grams
Number of animals/group: 5
Methodology: Chronic arthritis was induced in rats by the injection of 0.05 mL of (0.5% w/v) suspension of killed Mycobacterium tuberculosis, homogenized in liquid paraffin in the left hind foot.
Right ankle joints of the animals in the control and treated groups were separated from the hind paw, weighed and immersed in 10% buffered formalin for 24 hours, followed by decalcification in 10% EDTA. The joints were then dehydrated, processed and paraffin (56 C-58 C) blocks were prepared, stained (hematoxylin and eosin) and examined under the compound microscope (Patel P, Patel D, Patel N. Experimental investigation of anti-rheumatoid activity of Pleurotus sajorcaju in adjuvant-induced arthritic rats. Chinese Journal of Natural Medicines, 2012; 10 (4): 0269-0274.

COc1cc(/C=C/C(=O)COC(=O)/C=C/c2ccc(O)c(OC)c2)ccc1O [Calebin A]
Histopathology of rat paw tissue: articular cartilage (Calebin A 10 mg/kg per oral): intact articular cartilage with synovial tissue in the joint | Histopathology of rat paw tissue: granulomas (Calebin A 10 mg/kg per oral): No granulomas were seen | Histopathology of rat paw tissue: synovial tissue (Calebin A 10 mg/kg per oral): congested vascular spaces (Long-Arrows), scattered lymphocytes (Short-Arrow) and intact synovial lining | Histopathology of rat paw tissue: articular cartilage (Calebin A 20 mg/kg per oral): intact articular cartilage with synovial tissue in the joint | Histopathology of rat paw tissue: granulomas (Calebin A 20 mg/kg per oral): No granulomas were seen | Histopathology of rat paw tissue: synovial tissue (Calebin A 20 mg/kg per oral): mild synovial epithelial hyperplasia (Short-Arrow), scattered lymphocytes (Long-Arrow) and intact vascular spaces | Protection of articular cartilage (histopathological studies, overall) (arthritic rats, across doses): dose dependant protection of articular cartilage
